The values that follow are results of earlier work, collected in patent US20070275934A1, “Treatment of pancreatic cancer with active vitamin d compounds in combination with other treatments” (priority 2004, published 2007).

The structures appear in SMILES notation.

The subject of the data set is patients with refractory malignancies. The following applies: weekly HDPA, Beer et al. 2001.

Take `C=C1/C(=C\C=C2/CCC[C@]3(C)[C@@H]([C@H](C)CCCC(C)(C)O)CC[C@@H]23)C[C@@H](O)C[C@@H]1O` [calcitriol, 1α,25-dihydroxyvitamin D3]: the Dose-limiting toxicity entry is “no dose-limiting toxicity” and the “Mean peak calcitriol levels” value was “within the therapeutic range”.
